Assay results reported in US20020107193A1, “Therapeutic uses for IP3 receptor-mediated calcium channel modulators” (priority 2000, published 2002).
Entries after “also recorded” stand apart in the source; their conditions may differ.

Tests used:
[1] = tested on: NF-κB; assay: EMSA of NF-κB binding activity in cultured primary cortical neurons; assay type: cell-based, rat
Description: Cerebral cortices were removed from embryonic day 18 Sprague-Dawley rats (Harlan, Indianapolis, Ind.). Cells were dissociated as described previously (Mattson et al., 1995, J. Neurochem. 65:1740-1751.) and were seeded into polyethyleneimine-coated 60 mm culture dishes containing Eagle's Minimum Essential Medium supplemented with 26 mM NaHCO3, 40 mM glucose, 20 mM KCl, 1 mM sodium pyruvate, 10% (v/v) heat-inactivated fetal bovine serum (Sigma, St. Louis, Mo.), and 0.001% gentamycin sulfate. After a 3-5 h incubation period to allow for cell attachment, the medium was replaced with 2 ml of Neurobasal Medium with B27 supplements (GIBCO Life Technologies, Grand Island, N.Y.). […] Experimental treatments were performed on 7-to-9-day-old neuronal cultures in which there were approximately 5% contaminating glial cells.
Total cell extracts were prepared as described (Baeuerle and Baltimore, 1988, Cell 53:211-217). Briefly, cells were harvested, washed twice with ice-cold PBS and lysed for 30 min at 4° C. in Totex buffer (20 mM HEPES, pH 7.9, 350 mM NaC1, 20% glycerol, 1% NP-40, 1 mM MgC12, 0.5 mM EDTA, 0.1 mM EGTA, 5 mM DTT, 0.1% PMSF, 1% aprotinin, 4 μg/ml leupeptin). Samples were centrifuged at 14,000× g for 10 min and aliquots of supernatant were collected and stored at −70° C. until taken for assay. The protein content of the extract (supernatant) was measured by Bradford method (BIO-RAD Laboratories, Ercules, Calif., USA).
After 20 min at room temperature, reaction products were separated on a 7% non-denaturing polyacrylamide gel. Competition experiments were performed by incubating extracts with labeled oligonucleotide probe in the presence of 100-fold molar excess unlabeled NF-KB or CREB oligonucleotide. To characterize the NF-KB complexes, supershift assays were performed. Extracts were preincubated for 45 min at room temperature with antibodies recognizing either p50 or p65 sub-units of NF-κB (Santa Cruz Biotechnology, Santa Cruz, Calif.) or c-Fos (Oncogene Research Products, Cambridge, Mass.). The mixtures were further incubated with ^32P-labeled probe and resolved as described above. Radioactivity of dried gels was detected by exposure to Kodak X-Omat film and images on the developed film were scanned into a computer using a UMAX 1200s scanner. Densitometry was performed using Scion Image software (Scion Inc., Frederick, Md.). Paint Shop Pro software (JASC Inc. Minneapolis, Minn.) was used for preparation of the final figures.
The possible involvement of endoplasmic reticulum pools of intracellular calcium regulated by IP3 receptors in controlling basal levels of NF-κB was investigated using Xestospongin C (XeC) a specific membrane permeable modulator of IP3-mediated Ca^2+release (Gafni et al., 1997, Neuron 19:723-733; Hu et al., 1999, J. Biol. Chem. 274:33995-33998), and thapsigargin (Tg), a specific inhibitor of ER calcium/ATPase (Thastrup et al., 1990, Proc. Natl. Acad. Sci. USA 87:2466-2470; Davidson and Varhol, 1995, J. Biol. Chem. 270:11731-11734.). Cultured primary cortical neurons were treated with either 1 μM XeC, 100 nM Tg or vehicle for 6 h and protein extracts were analyzed for NF-κB binding activity by EMSA electrophoresis.

[2] = tested on: macrophage-tropic CCR5-utilizing HIV CSF; assay: p24 antigen in media of HIV-infected peripheral blood lymphocytes; assay type: cell-based; details: for p24 levels, of controls: day 2
Description: Peripheral blood lymphocytes, previously stimulated for 72 hours with PHA, were divided into 3 groups, designated T-HIV (RPMI-10 media containing 1 μM XeC and 0.1% DMSO), N-HIV (RPMI-10 media containing 0.1% DMSO) and HIV (RPMI-10 media). […] The cells were then infected with a macrophage-tropic CCR5-utilizing HIV CSF for 3 hours at 37° and then washed to remove excess virus. All groups were cultured in RPMI-10% FCS+10U/ml IL-2. Referring to FIGS. 7-11, cells were incubated at 37° C. in 5% CO2. At stated time points shown in the aforementioned figures, spent media was removed and replace with fresh media. The media was tested for the presence of p24 antigen as a surrogate for HIV infection and replication. […] The significance of using the CCR5 utilizing macrophage-tropic virus JR-CSF is that this is the type of virus generally transmitted sexually.

[3] = tested on: immune cell line; assay: Proinflammatory cytokine production in an immune cell line; assay type: cell-based
[4] = tested on: IP3 receptor; details: Gafni et al., 1997; cited from earlier work

In the case of `C1CCC[C@H]2CCCN3CC[C@@H](CCCCCC[C@@H]4CCCN5CC[C@@H](CC1)O[C@@H]45)O[C@@H]23` [XeC, Xestospongin C], the “effect on TNFα-induced NF-κB activation” value ([1]; 1 μM XeC 30 min prior to 100 ng/ml TNFα for 6 h) is reported as “completely abolished; also recorded: significantly inhibited”, the “effect on thapsigargin-induced elevation in NF-κB binding” value ([1]; 1 μM XeC pretreatment, 100 nM Tg, 6 h) is reported as “completely abolished the elevation” and the “effect on glutamate-induced elevation in NF-κB binding” value ([1]; 1 μM XeC pretreatment, 20 μM glutamate, 6 h) is reported as “completely abolished the elevation; also recorded: NF-κB binding below that of control; also recorded: totally abolish this induction”. The “basal NF-κB binding activity relative to control levels” value ([1]; cultured primary cortical neurons, 6 h, 1 μM XeC or 100 nM Tg, EMSA) was “statistically significant (p<0.05) reduction; also recorded: can inhibit basal levels of NF-κB binding”, the “p24 antigen as surrogate for HIV infection and replication, relative to DMSO” value ([2]; 1 μM XeC, 0.1% DMSO, overall statement) was “inhibition” and the “p24 levels, of controls” value ([2]; X1: XeC once 2 hours pre-infection, FIG. 7) was ~50%. The p24 levels ([2]; X1: XeC once 2 hours pre-infection, day 3, FIG. 7) was “increased to approximately control levels”, the p24 levels ([2]; X1: XeC once pre-infection, day 3, third experiment, FIG. 10) was “reduced relative to D1 and D2” and the p24 levels ([2]; X1: XeC once pre-infection, day 4, third experiment, FIG. 10) was “increased to near control levels”. For the same molecule, the p24 levels ([2]; X1: XeC once pre-infection, subsequent experiment, FIG. 8) was “no effect was seen”, the “p24 levels, of controls” value ([2]; X2: XeC 2 hours pre-infection and 6 hours post-infection, FIG. 7) was “approximately 80%” and the p24 levels ([2]; X2: XeC pre- and post-infection, day 3, FIG. 7) was “increased to approximately control levels”. The p24 levels ([2]; X2: XeC pre- and post-infection, day 3, third experiment, FIG. 10) was “reduced relative to D1 and D2”, the p24 levels ([2]; X2: XeC pre- and post-infection, day 4, FIG. 9) was “increase to near wild-type levels” and the “p24 levels, of the DMSO controls” value ([2]; X2: XeC pre- and post-infection, day 4, third experiment, FIG. 10) was “approximately 50%”. The p24 levels ([2]; X2: XeC pre- and post-infection, days 2 and 3, subsequent experiment, FIG. 8) was “greatly reduced”, the proinflammatory cytokine production [3] was “inhibited” and the “block of IP3-mediated calcium release” value [4] was “potent blockers”.
